Several values for one entry are separate records, joined by “and”; a condition that tells them apart may be missing. Equal entries are not always repeated.
Key:
human RBP4 = human RBP4 (Homo sapiens (Human), UniProt P02753); experiment: SPA binding assay for RBP4 (scintillation proximity, 3H-retinol displacement); conditions: 10 nM 3H-retinol, 50 nM biotinylated RBP4
Experimental: Scintillation Proximity RBP4 Binding Assay
Untagged human RBP4 purified from the urine of tubular proteinuria patients was purchased from Fitzgerald Industries International. It was biotinylated using the EZ-Link Sulfo-NHS-LC-Biotinylation kit from Pierce following the manufacturer's recommendations. […] Nonspecific binding was determined in the presence of 20 μM of unlabeled retinol. The reaction mix was assembled in the dark under dim red light. The plates were sealed with clear tape (TopSeal-A: 96-well microplate, PerkinElmer), wrapped in the aluminum foil, and allowed to equilibrate 6 hours at room temperature followed by overnight incubation at +4° C. Radiocounts were measured using a TopCount NXT counter (Packard Instrument Company).
(§1) The compounds listed below were tested in two in vitro assays, RBP4 binding (SPA) and retinol-dependent RBP4-TTR interaction (HTRF) (Table 1).

PPARγ = PPARγ (Homo sapiens (Human), UniProt P37231); experiment: PPARγ agonist assay (HTRF, PPARγ-NCOR interaction); assay type: biochemical; conditions: read-out: PPAR γ assay (HTRF) for agonists of this nuclear receptor - IC50
From the text: Significant safety issues are associated with the clinical use of PPARγ agonists (increased risk of death, myocardial infarction, stroke, congestive heart failure, hepatotoxicity, peripheral edema, weight gain and carcinogenicity^1-4). We wanted to characterize the compounds we identified in a pilot screen as potential PPARγ agonists. The PPARγ assay is based on agonist-sensitive interaction of the GST-tagged ligand-binding domain (LRD) of the nuclear receptor PPARγ with the biotinylated corepressor NCOR peptide (FIG. 8).
Assay reactions are performed in a final volume of 16 ul.
In well of the 384-well assay plate, mix 6 ul of PPARγ solution, 4 ul of NCOR2 solution and 4 μl of Rosi solution. Test compounds diluted from DMSO stocks to 4× assay concentration in 1×HTRF, 100 mM KF buffer may be dispensed to well instead of Rosi. Negative control wells contained DMSO solvent alone; positive control well contained […]. […] Two μl of detection mix was added per well. […] The plate was incubated for 16 hrs at 4° C.
HTRF signal was measured in the SpectraMax M5e Multimode Plate Reader (Molecular Device). Fluorescence was excited at 337 nm. […] The signal was expressed as the ratio of fluorescence intensity: Flu668/Flu620×10,000. […]

[1] = Metabolic stability in liver microsomes (HLM); assay type: in vitro ADME, human
Experimental: (§2) The compounds listed below were tested in various metabolic stability and CYP inhibition assays.

RBP4-TTR interaction = RBP4-TTR interaction (Homo sapiens (Human), UniProt P02753); experiment: HTRF (TR-FRET) assay for antagonists of retinol-induced RBP4-TTR interaction; assay type: biochemical; conditions: in the presence of 1 μM retinol
From the text: TR-FRET Assay for Retinol-Induced RBP4-TTR Interaction
Binding of a desired RBP4 antagonist displaces retinol and induces hindrance for RBP4-TTR interaction resulting in the decreased FRET signal (FIG. 7). Bacterially expressed MBP-RBP4 and untagged TTR were used in this assay. For the use in the TR-FRET assay, the maltose binding protein (MBP)-tagged human RBP4 fragment (amino acids 19-201) was expressed in the Gold(DE3)pLysS E. coli strain (Stratagene) using the pMAL-c4x vector. Following cell lysis, recombinant RBP4 was purified from the soluble fraction using the ACTA FPLC system (GE Healthcare) equipped with the 5-ml the MBP Trap HP column. Human untagged TTR was purchased from Calbiochem. Untagged TTR was labeled directly with Eu^3+ Cryptate-NHS using the HTRF Cryptate Labeling kit from CisBio following the manufacturer's recommendations. HTRF assay was performed in white low volume 384 well plates (Greiner-Bio) in a final assay volume of 16 μl per well. […] Titration of test compounds in this assay was conducted in the presence of 1 μM retinol. […] TR-FRET signal was measured in the SpectraMax M5e Multimode Plate Reader (Molecular Device). […] The TR-FRET signal was expressed as the ratio of fluorescence intensity: Flu665/Flu620×10,000.
as §1

CYP2C9 = CYP2C9 (Homo sapiens (Human), UniProt P11712); experiment: CYP inhibition, fluorescent, CYP2C9; assay type: in vitro ADME
Experimental: as §2

serum RBP4 = serum RBP4 (Mus musculus (Mouse), UniProt Q00724); experiment: Serum RBP4 reduction in Balb/c mice after a single oral administration; assay type: in vivo; conditions: at 6 hr timepoint
Experimental: Pharmacodynamic Studies of 7a and 7p in Balb/c Mice Following a Single Oral Administration
Animal protocols were approved by the Institutional Animal Care and Use Committee of Columbia University and complied with guidelines set forth by The Association for Research in Vision and Ophthalmology. Compounds were prepared as a suspension in 0.9% NaCl, 2% Tween 80 for oral administration. Compounds were administered to Balb/c mice in a volume of 100 μL through oral gavage. The doses used were 15 mg/kg, 25 mg/kg and 35 mg/kg for 7a while two doses, 25 mg/kg and 35 mg/kg, were tested for DENG-31(FFB-0000082). Blood samples were collected at pre-dose and 1 hr, 2 hr, 4 hr, 6 hr, 8 hr, and 24 hr timepoints. Whole blood was drawn into a centrifuge tube and was let clot at room temperature for 30 min followed by centrifugation at 2,000×g for 15 minutes at +4° C. to collect serum. Serum RBP4 was measured using the RBP4 (mouse/rat) dual ELISA kit (AdipoGen) following the manufacturer's instructions.
In order to attain this objective, the effect of oral compound administration was studied in mice. Three doses of compound 7a and two doses of 7p were tested in Balb/c mice assay for reduction of serum RBP4.

CYP2C19 = CYP2C19 (Homo sapiens (Human), UniProt P33261); experiment: CYP inhibition, fluorescent, CYP2C19; assay type: in vitro ADME
Experimental: as §2

CYP2D6 = CYP2D6 (Homo sapiens (Human), UniProt P10635); experiment: CYP inhibition, fluorescent, CYP2D6; assay type: in vitro ADME
Experimental: as §2

CYP3A4 = CYP3A4 (Homo sapiens (Human), UniProt P08684); experiment: CYP inhibition, fluorescent, CYP3A4; assay type: in vitro ADME
Experimental: as §2

Chain of CYP2C9 (P11712 whole entry, species assumed): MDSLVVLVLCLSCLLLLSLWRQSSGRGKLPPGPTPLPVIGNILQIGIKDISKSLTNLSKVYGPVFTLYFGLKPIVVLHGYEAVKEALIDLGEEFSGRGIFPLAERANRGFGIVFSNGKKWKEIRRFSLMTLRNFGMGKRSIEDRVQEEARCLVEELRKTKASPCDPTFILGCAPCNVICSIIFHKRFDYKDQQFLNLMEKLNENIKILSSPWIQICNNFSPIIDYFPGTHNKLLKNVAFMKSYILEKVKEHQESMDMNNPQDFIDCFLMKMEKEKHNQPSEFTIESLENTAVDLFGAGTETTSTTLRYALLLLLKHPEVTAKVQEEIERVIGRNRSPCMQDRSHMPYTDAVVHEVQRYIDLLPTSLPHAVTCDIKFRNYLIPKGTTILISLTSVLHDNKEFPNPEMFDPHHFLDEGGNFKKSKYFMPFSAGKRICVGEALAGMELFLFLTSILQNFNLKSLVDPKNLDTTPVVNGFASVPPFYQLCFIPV
Chain of CYP2D6 (P10635 whole entry, species assumed): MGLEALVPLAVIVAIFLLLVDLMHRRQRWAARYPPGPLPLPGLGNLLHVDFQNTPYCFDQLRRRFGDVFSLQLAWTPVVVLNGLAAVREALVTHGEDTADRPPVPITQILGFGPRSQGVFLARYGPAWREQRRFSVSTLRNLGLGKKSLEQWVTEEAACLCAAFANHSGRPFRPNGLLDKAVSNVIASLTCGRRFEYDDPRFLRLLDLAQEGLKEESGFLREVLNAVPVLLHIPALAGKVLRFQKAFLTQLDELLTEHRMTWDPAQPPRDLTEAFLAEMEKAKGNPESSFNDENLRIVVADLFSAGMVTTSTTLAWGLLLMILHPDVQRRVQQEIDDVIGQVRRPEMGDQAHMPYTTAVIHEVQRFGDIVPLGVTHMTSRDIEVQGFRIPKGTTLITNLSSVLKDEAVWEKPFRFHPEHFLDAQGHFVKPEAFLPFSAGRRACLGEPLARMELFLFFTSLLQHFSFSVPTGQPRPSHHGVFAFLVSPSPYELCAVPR
Chain of CYP2C19 (P33261 whole entry, species assumed): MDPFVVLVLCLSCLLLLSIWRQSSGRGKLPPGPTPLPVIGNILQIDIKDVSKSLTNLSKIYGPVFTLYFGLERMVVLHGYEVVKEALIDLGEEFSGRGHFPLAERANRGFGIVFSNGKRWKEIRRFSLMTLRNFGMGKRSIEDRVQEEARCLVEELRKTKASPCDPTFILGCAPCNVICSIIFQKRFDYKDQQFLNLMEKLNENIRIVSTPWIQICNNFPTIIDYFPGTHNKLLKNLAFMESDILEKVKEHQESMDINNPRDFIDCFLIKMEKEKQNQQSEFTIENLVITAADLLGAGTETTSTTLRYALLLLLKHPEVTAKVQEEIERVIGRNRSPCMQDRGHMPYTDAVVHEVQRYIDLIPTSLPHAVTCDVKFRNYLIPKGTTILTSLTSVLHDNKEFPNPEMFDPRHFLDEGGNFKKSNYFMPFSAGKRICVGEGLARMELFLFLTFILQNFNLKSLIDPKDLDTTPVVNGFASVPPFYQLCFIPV
Chain of PPARγ (P37231 204-505): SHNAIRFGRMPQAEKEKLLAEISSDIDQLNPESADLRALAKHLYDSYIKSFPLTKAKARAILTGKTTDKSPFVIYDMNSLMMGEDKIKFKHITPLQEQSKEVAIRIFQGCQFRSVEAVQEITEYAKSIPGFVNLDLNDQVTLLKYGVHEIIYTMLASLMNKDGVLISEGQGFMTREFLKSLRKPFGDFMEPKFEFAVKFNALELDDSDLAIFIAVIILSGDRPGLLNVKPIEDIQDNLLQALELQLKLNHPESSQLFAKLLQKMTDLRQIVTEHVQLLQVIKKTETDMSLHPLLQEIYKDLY
Chain of CYP3A4 (P08684 whole entry, species assumed): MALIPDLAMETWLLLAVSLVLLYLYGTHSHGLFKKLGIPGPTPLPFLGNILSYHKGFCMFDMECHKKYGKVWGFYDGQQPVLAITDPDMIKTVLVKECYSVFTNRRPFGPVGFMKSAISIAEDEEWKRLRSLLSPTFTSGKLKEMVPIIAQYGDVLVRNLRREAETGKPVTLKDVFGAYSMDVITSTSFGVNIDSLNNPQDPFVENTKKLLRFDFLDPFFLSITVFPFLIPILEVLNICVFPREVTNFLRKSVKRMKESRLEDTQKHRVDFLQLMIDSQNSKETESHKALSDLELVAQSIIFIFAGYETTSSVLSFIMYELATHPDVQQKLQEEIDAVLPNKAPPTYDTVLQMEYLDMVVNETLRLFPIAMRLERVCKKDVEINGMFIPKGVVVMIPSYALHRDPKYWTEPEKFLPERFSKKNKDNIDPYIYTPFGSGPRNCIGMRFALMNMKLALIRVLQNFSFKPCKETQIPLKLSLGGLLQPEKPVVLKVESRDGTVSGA

IC50 (human RBP4) [nM]	IC50 (PPARγ) [nM]	IC50 (RBP4-TTR interaction)	also measured	Structure (SMILES)
31	> 100000	491 nM	Metabolic stability in liver microsomes: % Remaining at 30 min, HLM [1]: 26%	O=C(c1nc2ncc(CCO)cn2n1)N1C[C@@H]2CN(c3cc(F)ccc3C(F)(F)F)C[C@@H]2C1 [Compound 7q]
37	> 100000	150 nM	IC50 (CYP2C9): > 20000 nM; maximum serum RBP4 reduction (serum RBP4; single 25 mg/kg PO): 89%; maximum serum RBP4 reduction (serum RBP4; single 35 mg/kg PO): 87%; IC50 (CYP2C19): > 20000 nM; Metabolic stability in liver microsomes: % Remaining at 30 min, HLM [1]: 73%; IC50 (CYP2D6): > 20000 nM; IC50 (CYP3A4): > 20000 nM	O=C(c1nc2ncc(CCO)cn2n1)N1C[C@@H]2CN(c3cc(F)ccc3C(F)(F)F)C[C@@H]2C1 [Compound 7p]
443		20400 nM		O=C(c1nc2nc(C(F)(F)F)ccn2n1)N1C[C@H]2C[C@@H](c3ccccc3OC(F)(F)F)C[C@H]2C1 [Compound 9i]
		494 nM		O=C(c1nc2ncc(CCO)cn2n1)N1C[C@H]2C[C@@H](c3cc(F)ccc3C(F)(F)F)C[C@H]2C1 [Compound 7i]
14800				Cc1ccccc1[C@@H]1C[C@@H]2CN(C(=O)c3nc4ncccn4n3)C[C@@H]2C1 [Compound 10a]
67	> 100000	1010 nM		COCCc1cnc2nc(C(=O)N3C[C@H]4C[C@@H](c5ccccc5C(F)(F)F)C[C@H]4C3)nn2c1 [Compound 7k]
	> 100000		IC50 (CYP2C9): 16000 nM and 50000 nM; IC50 (CYP2C19): > 100000 nM; Metabolic stability in liver microsomes: % Remaining at 30 min, HLM [1]: 85% and 66%; IC50 (CYP2D6): 12400 nM and 36000 nM	Cc1cnc2nc(C(=O)N3C[C@H]4C[C@@H](c5ccccc5C(F)(F)F)C[C@H]4C3)nn2c1 [Compound 7e]
23	> 100000	230 nM		CC(=O)OCCc1cnc2nc(C(=O)N3C[C@H]4C[C@@H](c5ccccc5C(F)(F)F)C[C@H]4C3)nn2c1 [Compound 7l]
45	> 100000	415 nM	IC50 (CYP2C19): > 100000 nM; Metabolic stability in liver microsomes: % Remaining at 30 min, HLM [1]: 61%; IC50 (CYP2D6): > 100000 nM; IC50 (CYP3A4): > 100000 nM	Cc1ccn2c(C(=O)N3C[C@H]4C[C@@H](c5ccccc5C(F)(F)F)C[C@H]4C3)nnc2n1 [Compound 7g]
88.1		1450 nM		O=C(c1cnc2ncccn12)N1C[C@H]2C[C@@H](c3ccccc3OC(F)(F)F)C[C@H]2C1 [Compound 9d]
82.9		1130 nM		Cc1ccn2c(C(=O)N3C[C@H]4C[C@@H](c5ccccc5OC(F)(F)F)C[C@H]4C3)nnc2n1 [Compound 9c]
27.3				O=C(c1nc2ncccn2n1)N1C[C@H]2C[C@@H](c3ccccc3C(F)(F)C(F)(F)F)C[C@H]2C1 [Compound 9a]
104		2480 nM		Cc1ccn2cc(C(=O)N3C[C@H]4C[C@@H](c5ccccc5OC(F)(F)F)C[C@H]4C3)nc2c1 [Compound 9h]
		300 nM		O=C(c1nc2ncccn2n1)N1C[C@H]2C[C@@H](c3ccccc3-c3ccccc3)C[C@H]2C1 [Compound 10d]
67	> 100000	628 nM		O=C(c1nc2ncc(CCCl)cn2n1)N1C[C@H]2C[C@@H](c3ccccc3C(F)(F)F)C[C@H]2C1 [Compound 7n]
108	> 100000	4580 nM and 7440 nM		Cc1cc(C)n2nc(C(=O)N3C[C@H]4C[C@@H](c5ccccc5C(F)(F)F)C[C@H]4C3)nc2n1 [Compound 7f]
		> 30000 nM		O=C(c1c[nH]c2cnccc12)N1C[C@H]2C[C@@H](c3ccccc3C(F)(F)F)C[C@H]2C1 [Compound 8a]
78.4		741 nM		O=C(c1cn2cccnc2n1)N1C[C@H]2C[C@@H](c3ccccc3OC(F)(F)F)C[C@H]2C1 [Compound 9g]
247	> 100000	1470 nM		NCCc1cnc2nc(C(=O)N3C[C@H]4C[C@@H](c5ccccc5C(F)(F)F)C[C@H]4C3)nn2c1 [Compound 7m]
16	> 100000	200 nM	IC50 (CYP2C9): 60000 nM; IC50 (CYP2C19): > 100000 nM; Metabolic stability in liver microsomes: % Remaining at 30 min, HLM [1]: 73%; IC50 (CYP2D6): > 100000 nM; IC50 (CYP3A4): > 100000 nM	O=C(c1nc2ncc(CCO)cn2n1)N1C[C@H]2C[C@@H](c3ccccc3C(F)(F)F)C[C@H]2C1 [Compound 7j]
		551 nM and 473 nM		O=C(c1nc2ncccn2n1)N1C[C@H]2C[C@@H](c3ccccc3OC(F)(F)F)C[C@H]2C1 [Compound 9j]
122	> 100000	306 nM and 1850 nM and 2800 nM		Cc1ccnc2nc(C(=O)N3C[C@H]4C[C@@H](c5ccccc5C(F)(F)F)C[C@H]4C3)nn12 [Compound 7d]
		40.8 nM		CC(C)c1ccccc1[C@@H]1C[C@@H]2CN(C(=O)c3nc4ncccn4n3)C[C@@H]2C1 [Compound 10c]
		> 30000 nM		O=C(c1c[nH]c2ccncc12)N1C[C@H]2C[C@@H](c3ccccc3C(F)(F)F)C[C@H]2C1 [Compound 8b]
22	> 100000	257 nM	IC50 (CYP2C19): > 20000 nM; IC50 (CYP2D6): > 20000 nM; IC50 (CYP3A4): > 20000 nM	O=C(c1nc2ncc(CCO)cn2n1)N1C[C@@H]2CN(c3ccccc3C(F)(F)F)C[C@@H]2C1 [Compound 7o]
38	> 100000	410 nM		O=C(c1nc2ncccn2n1)N1C[C@H]2C[C@@H](c3cc(F)ccc3C(F)(F)F)C[C@H]2C1 [Compound 7h]
46	> 100000	661 nM		O=C(c1nnc2ncccn12)N1C[C@H]2C[C@@H](c3ccccc3C(F)(F)F)C[C@H]2C1 [Compound 7b]
39	> 100000	949 nM		O=C(c1nc2ncc(Br)cn2n1)N1C[C@H]2C[C@@H](c3ccccc3C(F)(F)F)C[C@H]2C1 [Compound 7c]
57.1		450 nM		Cc1cnc2nc(C(=O)N3C[C@H]4C[C@@H](c5ccccc5OC(F)(F)F)C[C@H]4C3)nn2c1 [Compound 9f]

Reference: patent US12168664B2, “Triazolopyrimidines, their preparation and use” (THE TRUSTEES OF COLUMBIA UNIVERSITY IN THE CITY OF NEW YORK, priority 2018, dated 2024)
